The source of these data is patent US9388139B2, “Derivatives of celeboxib, use thereof and preparation thereof” (German University, priority 2011, dated 2016).

pIC50: −log10 of the molar value. A value given as a limit tells only on which side of the number the result lay.

The subject of assay [1] is human breast MDA-MB-231 tumor cell line. The assay can be described thus: Tumor cell growth assay (Cell Titer Glo). The format is cell-based. Particulars: MDA-MB-231, 72 hours, read-out: IC50 μM against MDA-MB-231.
In a further assay the target is recombinant human PDE5 (Homo sapiens (Human), UniProt O76074). Description: PDE5 inhibition, IMAP fluorescence polarization assay. The format is biochemical. The settings on record: recombinant human PDE5; IC50 determined if inhibition >50% at 50 μM screening dose; read-out: IC50 μM against PDE5. On the procedure:
Compounds according to the present disclosure were tested for their in vitro ability to inhibit recombinant human PDE5, COX1 and COX2 enzymes at screening doses of 50, 100 and 100 μM respectively.
(§1) PDE activity was measured using the IMAP fluorescence polarization assay (Molecular Devices) in which binding of hydrolyzed cyclic nucleotide substrate to immobilized metal coordination complexes increases fluorescence polarization (FP). Tetramethylrhodamine (TAMRA)-cGMP and fluorescein-cAMP were used as substrates, each at final concentration of 50 nmol/L. The PDE assay was done according to the manufacturer's specifications using either whole cell lysates or recombinant enzymes.
A general note: Polarisation of emitted light reports the rotation of a fluorescent probe.

Assay [2] has as its system human colorectal HT-29 tumor cell line. Description: Tumor cell growth assay (Cell Titer Glo). The format is cell-based. The settings on record: HT-29, 72 hours, read-out: IC50 μM against HT-29. (In general: In ATP-based viability assays light output follows the ATP content of the culture.)
The target in a further assay is PDE2A (Homo sapiens (Human), UniProt O00408). The assay can be described thus: PDE isozyme selectivity, IMAP assay. The class given is biochemical. On the procedure: as §1
PDE2A, sequence (O00408 whole entry, species assumed): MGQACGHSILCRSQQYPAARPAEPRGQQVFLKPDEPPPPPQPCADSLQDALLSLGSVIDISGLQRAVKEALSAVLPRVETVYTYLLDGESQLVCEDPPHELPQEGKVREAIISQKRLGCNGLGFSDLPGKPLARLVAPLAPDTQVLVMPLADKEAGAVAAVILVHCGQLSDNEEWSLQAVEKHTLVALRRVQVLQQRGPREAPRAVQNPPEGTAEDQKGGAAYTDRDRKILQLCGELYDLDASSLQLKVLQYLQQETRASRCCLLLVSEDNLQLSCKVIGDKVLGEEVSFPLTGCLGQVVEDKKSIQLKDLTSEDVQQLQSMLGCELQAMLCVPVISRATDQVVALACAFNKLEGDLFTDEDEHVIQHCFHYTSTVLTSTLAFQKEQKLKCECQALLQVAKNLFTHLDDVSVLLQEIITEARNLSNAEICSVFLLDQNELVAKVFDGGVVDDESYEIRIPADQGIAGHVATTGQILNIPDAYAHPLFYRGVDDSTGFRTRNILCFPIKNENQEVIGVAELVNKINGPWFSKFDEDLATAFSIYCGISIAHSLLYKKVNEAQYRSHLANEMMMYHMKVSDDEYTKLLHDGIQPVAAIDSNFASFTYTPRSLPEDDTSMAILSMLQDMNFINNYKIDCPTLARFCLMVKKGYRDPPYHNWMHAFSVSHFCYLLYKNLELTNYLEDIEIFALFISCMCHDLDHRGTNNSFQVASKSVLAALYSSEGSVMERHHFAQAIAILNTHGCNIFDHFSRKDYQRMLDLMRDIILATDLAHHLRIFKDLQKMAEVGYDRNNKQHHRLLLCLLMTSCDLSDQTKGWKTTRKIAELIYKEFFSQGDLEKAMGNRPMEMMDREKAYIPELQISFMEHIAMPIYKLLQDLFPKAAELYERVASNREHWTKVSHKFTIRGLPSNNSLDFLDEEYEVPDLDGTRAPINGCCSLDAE

For orientation: IC50 means the point on the concentration scale where inhibition reaches its midpoint. For orientation: pIC50 means the negative decadic logarithm of the IC50, by convention in mol/L. Low readings indicate a large IC50, high ones a small IC50. Consider `CC(C)(C)C1=NN(c2ccc(C(=O)O)cc2)C(c2ccc(Cl)cc2Cl)C1` (centres unmarked) [Compound 12, 4-(3-(tert-Butyl)-5-(2,4-dichlorophenyl)-4,5-dihydro-1H-pyrazol-1-yl)benzoic acid], for which the concentration for half-maximal inhibition (IC50) in assay [1] is above 50 µM; at recombinant human PDE5, 3.7 µM; in assay [2], 29.8 µM. The pIC50 on PDE2A (substrate cAMP) and against PDE2A (substrate cGMP) was below 4.30 each time.
